Results on 1 compound are retold here after patent US9150523B2, “Piperazine derivatives, methods for preparing same, and uses thereof in the treatment of insulin resistance” (METABOLYS, priority 2011, dated 2015).

In the experiment the test system is db/db mouse. In words: Antidiabetic activity in db/db mouse (drop in glycaemia after oral administration). The note with it: 8 weeks old, 200 mg/kg per os. The class given is in vivo. On the procedure: The antidiabetic activity of the compound of formula (I) orally on a type 2 diabetes animal model, the db/db mouse, was tested. Diabetic mice are used at the age of 8 weeks; they then have very high hyperglycaemia. The animals are stabilised at a minimum for one week after reception and up to the day of experimentation in an animal house at a temperature regulated at 21°-22° C. and subjected to a fixed cycle of light (from 7 a.m. to 7 p.m.) and darkness (from 7 p.m. to 7 a.m.). Their food consisted of a maintenance regime; water and food were supplied “ad libitum”. The mice are treated orally with the product to be tested (200 mg/kg per os) in suspension in a mixture of water and methyl cellulose or the vehicle (mixture of water and methyl cellulose) in the morning of the day of the experimentation. Just before the administration of the product and one and two hours after the administration of the product, a blood sample (one drop of blood) is taken following a small incision in the tail for determining glycaemia. This glycaemia is measured by means of a glucometer (Lifescan OneTouch Ultra, LifeScan, Johnson-Johnson Company) and OneTouch Ultra glycaemia measurement strips.

As to `COc1ccccc1N1CCN(CCOc2ccc(CCCCC(=O)O)cc2)CC1.Cl` [Compound 1], the “Drop in glycaemia (in % of the initial value) After 1 hour” value (1 hour after administration) was 34%. Moreover, the “Drop in glycaemia (in % of the initial value) After 2 hours” value (2 hours after administration) is on record as 44%.
